These results are taken from patent publication US11987568B2, “Allosteric inhibitor of WEE1 kinase” (H. LEE MOFFITT CANCER CENTER AND RESEARCH INSTITUTE, INC., priority 2018, dated 2024).

Data set [1] has as its system Cdc2 Tyr15-phosphorylation (pY15-Cdc2). As to the kind of experiment: WEE1 cell cycle inhibitory activity in cells: pY15-Cdc2 immunoblot. The format is cell-based, human. The settings on record: LNCaP cells, 3 uM, 48 hours (FIG. 2A). The text has this: FIGS. 2A-2B show identification of 3 distinct types of inhibitors. […] In addition, the lysates were also subjected to by immunoblotting with […]-Cdc2 or actin antibodies (middle and bottom panels). […] The number vehicle treated cells were used as control and percent of surviving cells were plotted. […] In addition, the lysates were also subjected to immunoblotting with actin antibodies (bottom panel). Identification of compounds with WEE1 epigenetic inhibitory role: 14 'hits' that were identified in the screen are shown in FIG. 1. These compounds were further tested for their ability to inhibit WEE1 epigenetic activity. Prostate cancer derived LNCaP cells were treated with 3 uM of compounds for 48 hours. […] Lysates were also assessed for WEE1 cell cycle inhibitory activity by determining Cdc2 Tyr15-phosphorylation ([…]-Cdc2). […] These are named as 'Cell Cycle' inhibitors. […] These compounds are the 'Epigenetic' inhibitors.
For orientation: Immunoblotting shows a protein as a band on a membrane.

Another data set in a line: LogD. In kind it is physicochemical. The settings on record: pH 7.4. The procedure:
(§1) ADME studies with 55152 (18-B3) and 367416 (16-G9): The solubility, microsome stability and plasma stability of these two compounds were also determined (Table 2).

In data set [2] the test system is histone H2B Tyr37-phopshorylation (pY37-H2B). The experiment in a line: WEE1 epigenetic activity in cells: pY37-H2B immunoprecipitation/immunoblot. In kind it is cell-based, human. The settings on record: LNCaP cells. The text has this: FIGS. 2A-2B show identification of 3 distinct types of inhibitors. […] In addition, the lysates were also subjected to by immunoblotting with pY15-Cdc2 or actin antibodies (middle and bottom panels). […] The number vehicle treated cells were used as control and percent of surviving cells were plotted.
FIGS. 4A-4B show structures of ‘hits’ identified in WEE1 epigenetic inhibitor screen. […] The reaction mix was then subjected to immunoprecipitated with WEE1 antibodies, followed by immunoblotting with pTyr antibodies. […] In addition, the lysates were also subjected to immunoblotting with actin antibodies (bottom panel).
FIGS. 7A-7C show identification of WEIN-159 as a potent WEE1 epigenetic inhibitor. […] In addition, lysates were immunoprecipitated with pY37-H2B antibodies, followed by immunoblotting with H2B antibodies (middle panel). […] The lysates were also subjected to immunoblotting with pY15-Cdc2 antibodies and were immunoprecipitated with pY37-H2B antibodies, followed by immunoblotting with H2B antibodies (middle panels). In addition, the lysates were also subjected to immunoblotting with H2B antibodies (bottom panel). […] The lysates were also subjected to immunoblotting with pY15-Cdc2 antibodies and were immunoprecipitated with pY37-H2B antibodies, followed by immunoblotting with H2B antibodies (middle panels). In addition, the lysates were also subjected to immunoblotting with actin antibodies (bottom panel).
Identification of compounds with WEE1 epigenetic inhibitory role: 14 ‘hits’ that were identified in the screen are shown in FIG. 1. These compounds were further tested for their ability to inhibit WEE1 epigenetic activity. Prostate cancer derived LNCaP cells were treated with 3 uM of compounds for 48 hours. Cells were harvested, lysates were prepared, and WEE1 epigenetic activity was detected by determining histone H2B Tyr37-phopshorylation (pY37-H2B). Lysates were also assessed for WEE1 cell cycle inhibitory activity by determining Cdc2 Tyr15-phosphorylation (pY15-Cdc2). […] These are named as ‘Cell Cycle’ inhibitors. […] These compounds are the ‘Epigenetic’ inhibitors.

In a further data set the target is WEE1 (Homo sapiens, UniProt P30291). The experiment in a line: Endogenous WEE1 auto-phosphorylation in cells (WEE1 IP, pTyr immunoblot). The settings on record: LNCaP cells, 10 μM overnight (FIG. 3B). The format is cell-based. The procedure: The reaction mix was then subjected to immunoprecipitated with WEE1 antibodies, followed by immunoblotting with pTyr antibodies (top panel). As a control, purified ACK1 protein was incubated in the reaction buffer containing ATP, in presence of 100 nM epigenetic inhibitors. The reaction mix was then subjected to immunoprecipitated with ACK1 antibodies, followed by immunoblotting with pTyr antibodies (bottom panel). […] In addition, the lysates were also subjected to immunoblotting with actin antibodies (bottom panel). […] In addition, the lysates were also subjected to immunoblotting with actin antibodies (bottom panel). […] In addition, the lysates were also subjected to immunoblotting with actin antibodies (bottom panel). To determine direct binding of these compounds causing WEE1 inhibition, a full length WEE1 kinase protein was incubated with the compounds. […] These inhibitors were further validated by assessing their ability to suppress endogenous WEEE activity; LNCaP cells were treated with 10 μM of these compounds overnight.

A short description of a further data set: Solubility. In kind it is physicochemical. The procedure: as §1
The next data set addresses T1, Wee2 KD (Homo sapiens, UniProt P0C1S8).
T1 construct: WEE1 & WEE2 (as control) kinase domains from mammalian cells (HEK293T cells) were purified
The experiment in a line: Differential Scanning Fluorimetry (DSF), Wee2 KD. The format is binding. The settings on record: kinase domain purified from HEK293T cells. The procedure: Binding study of WEE1 epigenetic inhibitors: To identify the precise binding region/domain of WEE1 epigenetic inhibitors, WEE1 & WEE2 (as control) kinase domains from mammalian cells (HEK293T cells) were purified. The binding of inhibitors was assessed using Differential Scanning Fluorimetry (DSF).
A general note: Differential scanning fluorimetry follows unfolding on heating by fluorescence.

Another data set concerns 5hmC levels. The experiment in a line: 5-hmC slot blot of genomic DNA. The format is cell-based. The settings on record: 10 uM, 16 hr. The procedure: WM66 cells (FIG. 5A) or primary melanocytes (FIG. 5B) were treated with vehicle or compounds (10 uM) for 16 hr. Total RNA was isolated followed by qRT-PCR with IDH2 and actin primers. FIG. 5C indicated cells were treated with vehicle or compounds (10 uM) for 16 hr. Total genomic DNA was isolated, slot-blotted onto a nitrocellulose membrane, followed by blotting with 5-hmC antibodies (top panels). Blots were also stained with methylene blue, to determine equal loading of DNA (bottom panel).
Identification of 55152 (18-B3) scaffold as a WEE1 epigenetic inhibitor: Two major hits, 367416 (16-G9) and 55152 (18-B3) were taken up for further characterization. […] Accordingly, melanoma cell line WM66 and primary melanocytes were treated with inhibitors and IDH2 mRNA levels were measure by real time PCR.

A short description of data set [3]: Microsome Stability, Human. In kind it is in vitro ADME. The procedure: as §1
The subject of the next data set is LAPC4 cells. As to the kind of experiment: LAPC4 cell proliferation, trypan blue exclusion assay. The format is cell-based. The settings on record: Homo sapiens, 96 hr, viable cells by trypan blue exclusion. The text has this: FIGS. 2A-2B show identification of 3 distinct types of inhibitors. […] In addition, the lysates were also subjected to by immunoblotting with […]-Cdc2 or actin antibodies (middle and bottom panels). […] The number vehicle treated cells were used as control and percent of surviving cells were plotted. […] The number of vehicle treated cells were used as control and percent of surviving cells were plotted. […] The number vehicle treated cells were used as control and percent of surviving cells were plotted. 7 of these epigenetic inhibitors in various assays such as cell proliferation assay, an in vitro kinase assay were performed and WEE1 autophosphorylation in vivo was determined. Prostate cancer derived LAPC4 cells were treated with inhibitors and its effect on cell proliferation was examined.

SMILES strings stand for the structures. In brackets after ≈: the same amount, converted by molar mass. Where two headings read alike, the source gives them in different places.

T1 sequence (P0C1S8 212-486): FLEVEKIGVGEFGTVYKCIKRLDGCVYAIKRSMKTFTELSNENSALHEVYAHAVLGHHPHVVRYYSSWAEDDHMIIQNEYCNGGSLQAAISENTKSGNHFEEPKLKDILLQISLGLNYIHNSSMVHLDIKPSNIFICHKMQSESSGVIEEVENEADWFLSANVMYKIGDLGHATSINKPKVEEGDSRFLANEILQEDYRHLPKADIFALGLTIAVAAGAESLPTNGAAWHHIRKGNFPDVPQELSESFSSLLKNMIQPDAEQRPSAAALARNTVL
Sequence of WEE1 (P30291 whole entry): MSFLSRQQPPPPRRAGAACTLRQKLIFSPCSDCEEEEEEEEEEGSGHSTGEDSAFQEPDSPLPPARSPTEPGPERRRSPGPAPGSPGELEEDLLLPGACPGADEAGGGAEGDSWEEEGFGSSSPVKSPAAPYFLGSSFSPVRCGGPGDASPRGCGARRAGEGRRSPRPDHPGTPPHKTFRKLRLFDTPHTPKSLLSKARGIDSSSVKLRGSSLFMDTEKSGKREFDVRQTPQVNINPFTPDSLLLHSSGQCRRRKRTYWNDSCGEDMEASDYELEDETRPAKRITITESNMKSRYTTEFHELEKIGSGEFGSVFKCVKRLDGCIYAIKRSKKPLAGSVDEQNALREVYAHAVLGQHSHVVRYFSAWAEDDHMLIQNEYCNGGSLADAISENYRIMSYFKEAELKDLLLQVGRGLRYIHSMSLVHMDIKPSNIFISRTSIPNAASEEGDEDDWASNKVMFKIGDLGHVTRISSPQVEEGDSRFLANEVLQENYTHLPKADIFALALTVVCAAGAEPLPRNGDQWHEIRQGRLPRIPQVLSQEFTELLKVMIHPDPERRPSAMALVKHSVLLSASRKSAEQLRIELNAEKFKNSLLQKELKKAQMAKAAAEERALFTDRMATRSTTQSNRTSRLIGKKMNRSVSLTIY

Consider `Nc1ccc(NC(=O)c2ccc(C(=O)Nc3ccc(N)cc3)cc2)cc1` [SG5-061, N^1,N^4-bis(4-aminophenyl)terephthalamide], for which the “Cdc2 Tyr15-phosphorylation (pY15-Cdc2)” value in data set [1] is recorded as “did not affect Cdc2 Tyr15-phosphotylation”. For the same compound, in the data set “LogD”, the log distribution coefficient (logD) (commonly lipophilicity at a set pH, counting ionised and neutral species) was determined as 0.98. The “H2B Tyr37-phosphorylation (pY37-H2B)” value in data set [2] (3 uM, 48 hours (FIG. 2A)) was “specifically suppressed H2B Tyr37-phosphotylation”. Besides, the “H2B Tyr37-phosphorylation” value in [2] (10 μM, 12 hours (FIG. 4B)) is given as “complete loss of H2B Tyr37-phosphorylation”. Besides, the WEE1 auto-phosphorylation result on WEE1 is on record as “significant loss of WEE1 auto-phosphorylation”. For the same compound, the solubility is 0.13 µg/mL (≈ 0.375 µM) in the data set “Solubility” (aqueous buffer, pH 5.0, read-out: Solubility (ug/mL) pH 5.0); 0.22 µg/mL (≈ 0.635 µM) in the data set “Solubility” (pH 6.2, aqueous buffer, read-out: Solubility (ug/mL) pH 6.2); 0.15 µg/mL (≈ 0.433 µM) in “Solubility” (pH 7.4, aqueous buffer, read-out: Solubility (ug/mL) pH 7.4). For the same compound, the “ΔTm for Wee2 KD (° C.)” value was found to be 0.1 °C on Wee2 KD and 1.1 °C on Wee2 KD (listed as 55152 (18-B3)). Besides, the 5hmC levels entry with 5hmC levels is listed as “Corresponding increase in 5hmC levels”. The “Microsome Stability % remaining @ 1 hr Human” value in data set [3] turned out to be 64.56%. Further, the half-maximal inhibitory concentration (IC50) – broadly, the point on the concentration scale where inhibition reaches its midpoint – in the data set on LAPC4 cells came out at 1000 nM.
